# Measurements reported in US5576355A, “Diamondoid derivatives for pharmaceutical use” (priority 1993, dated 1996).
# Entries after “also recorded” stand apart in the source; their conditions may differ. Where two headings read alike, the source gives them in different places.
# Tests used:
# HIV-1/MN [1] = test: Anti-HIV assay (MTT, protection from cytopathic effect), pre- or post-infection, HIV-1/MN; assay type: cell-based; on MN Post-Infection: key: ++++: significant and reproducible inhibition of cytopathic effect; +++: significant and reproducible inhibition of cytopathic effect; +: noticeable but minimal protection; ---: no protective effect was observed; --: no protective effect was observed; -: no protection was observed but some changes in the cell culture occurred
# HIV-1/MN [2] = test: Virus neutralization assay (MTT), HIV-1MN; assay type: cell-based; on MN Neutralization: key: ++++: significant and reproducible inhibition of cytopathic effect; +++: significant and reproducible inhibition of cytopathic effect; +: noticeable but minimal protection; ---: no protective effect was observed; --: no protective effect was observed; -: no protection was observed but some changes in the cell culture occurred
# MT-2 cells = test: MTT dye reduction cytotoxicity assay, 5 days
# Procedure: The MT-2 cell line was grown and maintained in RPMI 1640 containing 10% fetal calf serum and antibiotics.
# Precisely, when the MT-2 cells were in log phase and 2×10^4 cells were distributed in each well along with separate 100 μl aliquots of diluted test compounds. The test compounds were soluble in ethyl alcohol (EtOH). Ethanol and medium were incubated in some wells with the cells as an ethanol control. A cell control was also included (wells containing only cells and medium). The plates were incubated for 5 days at 37° C. in 5% CO2 and humidified conditions. Cell viability was determined in each well by the MTT assay. The OD570 (optical density at 570 nm) of cells without test compound was taken as 0% killing and was compared to the OD570 of cells with test compound. The toxicity profile for different compounds was then scored. In the MTT dye reduction assay toxicity was indicated as yellow in the wells, with blue color indicating the compound was non-toxic.
# HIV-1 = test: Anti-HIV testing under the rigorous conditions of the examples (strain not stated); settings: high virus load, words
# Influenza Viruses = settings: cited from earlier work
# [3] = tested on: AZT resistant strain (AZTR) of HIV-1; test: Anti-HIV assay (MTT), pre- or post-infection, AZT resistant strain; settings: words
# VP6 primary HIV isolate = test: Anti-HIV assay (MTT), pre- or post-infection, VP6 isolate; settings: words
# HIV-1MN induced syncytia = test: Syncytia inhibition, HIV-1MN
# [4] = HIV-1/MN, virus pre-mixed with compound 1 hour
smiles,measurement,setting,value
"O[C@@H]1[C@@H]2C[C@H]3C[C@@H](C2)C2(OCCO2)[C@@H]1C3 (relative stereo) [Compound 8, 4(e)-hydroxy-2-adamantanone ethylene glycol ketal]",MN Post-Infection,HIV-1/MN [1],-
same,effect in pre-infection (pretreatment) assay,HIV-1/MN [1],effective
same,effect in neutralization assay,HIV-1/MN [2],effective
same,Toxicity at 5 μg/ml,MT-2 cells,-
same,Toxicity at 50 μg/ml,MT-2 cells,-
same,Toxicity at .5 μg/ml,MT-2 cells,-
"O=C1C2CC3CC(C2)CC1C3 [2-adamantanone, reference compound]",activity under the rigorous testing conditions,HIV-1,ineffective
O=C1C2CC3CC1CC(O)(C3)C2 [5-hydroxy-2-adamantanone],activity under the rigorous testing conditions,HIV-1,ineffective
NC12CC3CC(CC(C3)C1)C2 [Amantadine],concentration at which viral entry into the cell is non-specifically inhibited,Influenza Viruses; altering the pH of the endocytic vesicle,> 0.5 mM
same,concentration of selective strain-specific inhibition of virus assembly,Influenza Viruses; lower concentration,about 5 μM
"OC12CC3(O)CC(O)(C1)CC(O)(C2)C3 [Compound 1, 1,3,5,7-tetrahydroxyadamantane]",MN Post-Infection,"HIV-1/MN [1]; HIV-1/MN, post-infection",+++
same,effect in both pre-infection and post-infection assays,"HIV-1/MN [1]; HIV-1MN, words",effective
same,effect in pre-infection (pretreatment) assay,"HIV-1/MN [1]; MN, pre-infection, words",effective
same,effect in post-infection assay,"HIV-1/MN [1]; post-infection, words",effective
same,effect in neutralization assay,"HIV-1/MN [2]; neutralization, words",effective
same,Toxicity at 5 μg/ml,MT-2 cells,-
same,Toxicity at 50 μg/ml,MT-2 cells,-
same,Toxicity at 500 μg/ml,MT-2 cells,-
same,Toxicity at .5 μg/ml,MT-2 cells,-
"CC12CC3(C)CC(O)(C1)CC(O)(C2)C3 [Compound 2, 1,3-dihydroxy-5,7-dimethyladamantane]",MN Post-Infection,"HIV-1/MN [1]; HIV-1/MN, post-infection",+++
same,effect in both pre-infection and post-infection assays,"HIV-1/MN [1]; HIV-1MN, words",effective
same,effect in pre-infection (pretreatment) assay,"HIV-1/MN [1]; MN, pre-infection, words",effective
same,effect in post-infection assay,"HIV-1/MN [1]; post-infection, words",effective
same,effect in neutralization assay,"HIV-1/MN [2]; neutralization, words",effective
same,Toxicity at 5 μg/ml,MT-2 cells,-
same,Toxicity at 50 μg/ml,MT-2 cells,-
same,Toxicity at .5 μg/ml,MT-2 cells,-
"C[N+](C)(C)CCC[N+](C)(C)C1C2CC3C4CC5CC3C1C(C5)C4C2 (stereo not shown) [Compound 3, N-3-diamantyl-N,N,N',N',N'-pentamethyl propane-1,3-bis ammonium diiodide]",MN Post-Infection,"HIV-1/MN [1]; HIV-1/MN, post-infection",+++
same,effect in both pre-infection and post-infection assays,"HIV-1/MN [1]; HIV-1MN, words",effective
same,effect in pre-infection (pretreatment) assay,"HIV-1/MN [1]; MN, pre-infection, words",effective
same,effect in post-infection assay,"HIV-1/MN [1]; post-infection, words",effective
same,MN Neutralization,HIV-1/MN [2]; [4],+++
same,effect in neutralization assay,"HIV-1/MN [2]; neutralization, words",effective
same,Toxicity at 5 μg/ml,MT-2 cells,-
same,Toxicity at 50 μg/ml,MT-2 cells,-
same,Toxicity at .5 μg/ml,MT-2 cells,-
"C[N+](C)(C)CC[N+](C)(C)C1C2CC3CC(C2)CC1C3 (stereo not shown) [Compound 4, N-2-adamantyl-N,N,N',N',N'-pentamethyl ethane-1,2-bis ammonium diiodide]",Toxicity at 5 μg/ml,MT-2 cells,-
same,Toxicity at 50 μg/ml,MT-2 cells,-
same,Toxicity at 500 μg/ml,MT-2 cells,-
same,Toxicity at .5 μg/ml,MT-2 cells,-
"O=C(O)CNC1C2CC3CC(C2)CC1C3 (stereo not shown) [Compound 5, N-2-adamantyl glycine]",MN Pre-Infection,"HIV-1/MN [1]; HIV-1/MN, cells pretreated 1 hour",-
same,MN Post-Infection,"HIV-1/MN [1]; HIV-1/MN, post-infection",+++
same,effect in post-infection assay,"HIV-1/MN [1]; post-infection, words",effective
same,MN Neutralization,HIV-1/MN [2]; [4],-
same,Toxicity at 5 μg/ml,MT-2 cells,-
same,Toxicity at 50 μg/ml,MT-2 cells,-
same,Toxicity at 500 μg/ml,MT-2 cells,-
same,Toxicity at .5 μg/ml,MT-2 cells,-
"O=C1C2CC3C4CC5CC3C1C(C5)C4C2 [Compound 6, 3-diamantanone]","inhibition of virus replication, AZT resistant strains",[3]; both pre- and post-infection,inhibited virus replication
same,inhibition of AZT resistant isolates,[3],shown to inhibit
same,MN Post-Infection,HIV-1/MN [1],++++
same,MN Pre-Infection,HIV-1/MN [1],+++
same,effect in both pre-infection and post-infection assays,HIV-1/MN [1],effective; also recorded: active
same,effect in post-infection assay,HIV-1/MN [1],effective
same,effect in pre-infection (pretreatment) assay,HIV-1/MN [1],effective
same,MN Neutralization,HIV-1/MN [2],+++
same,effect in neutralization assay,HIV-1/MN [2],effective; also recorded: active
same,Toxicity at 5 μg/ml,MT-2 cells,-
same,Toxicity at 50 μg/ml,MT-2 cells,-
same,Toxicity at .5 μg/ml,MT-2 cells,-
same,"inhibition of virus replication, VP6 clinical isolates",VP6 primary HIV isolate; both pre- and post-infection,inhibited virus replication
same,inhibition of clinical isolates,VP6 primary HIV isolate,shown to inhibit
same,inhibition of HIV-1MN induced syncytia at 10 μg/ml,"HIV-1MN induced syncytia; 10 μg/ml, FIG. 2",completely inhibit
"O=C1C2CC3CC(C2)C(=O)C1C3 [Compound 7, 2,4-adamantanedione]","inhibition of CPE of HIV, AZT resistant isolate",[3]; pre-infection,inhibited CPE of HIV
same,inhibition of AZT resistant isolates,[3],shown to inhibit
same,MN Post-Infection,"HIV-1/MN [1]; HIV-1/MN, post-infection",-
same,effect in pre-infection (pretreatment) assay,"HIV-1/MN [1]; MN, pre-infection, words",effective; also recorded: inhibited viral cytopathic effect
same,pretreatment compared with post-infection treatment,HIV-1/MN [1]; words,pretreatment is more effective than post-infection treatment
same,effect in neutralization assay,"HIV-1/MN [2]; neutralization, words",effective
same,Toxicity at 5 μg/ml,MT-2 cells,-
same,Toxicity at 50 μg/ml,MT-2 cells,-
same,Toxicity at 500 μg/ml,MT-2 cells,-
same,Toxicity at .5 μg/ml,MT-2 cells,-
same,"inhibition of CPE of HIV, VP6 isolate",VP6 primary HIV isolate; pre-infection,inhibited CPE of HIV
same,inhibition of clinical isolates,VP6 primary HIV isolate,shown to inhibit
same,inhibition of syncytia formation,HIV-1MN induced syncytia; concentration not given,substantially eliminate syncytia formation
"C[N+](C)(C)CCC[N+](C)(C)C1C2CC3CC(C2)CC1C3 (stereo not shown) [N-(2-adamantyl)-N,N,N',N',N'-pentamethyl-propane-1,3-bis ammonium diodide]",activity under the rigorous testing conditions,HIV-1,ineffective
"O=C1C2CC3CC1CC(C2)C3=O [adamantane-2,6-dione]",activity under the rigorous testing conditions,HIV-1,ineffective
"O=C1C2CC3C4CC5CC3C(C2=O)C(C5)C14 [diamantane-3,5-dione]",activity under the rigorous testing conditions,HIV-1,ineffective
